Values quoted from earlier work as cited in publication PMC3266668 (Frontiers in Pharmacology, 2012).

Tests used:
[1] = test system: isolated left ventricular wedge preparations; details: ref Lu et al., [2010]
[2] = test system: isolated rabbit hearts; details: ref Lu et al., [2010]
[3] = test system: patients after myocardial infarction; details: ref Echt et al., [1991]

SMILES	QRS interval effect [1]	ventricular tachycardia [1]	QRS interval effect [2]	ventricular tachycardia [2]	mortality in CAST treatment arms [3]
CCN(CC)CC(=O)Nc1c(C)cccc1C [lidocaine]	only slightly increased QRS duration	without inducing ventricular tachycardia	small increase in QRS duration	did not induce ventricular tachycardia	
COc1ccc(C(=O)Nc2ccccc2CCC2CCCCN2C)cc1 (stereo not drawn) [encainide]					increased mortality due to arrhythmias
O=C(NCC1CCCCN1)c1cc(OCC(F)(F)F)ccc1OCC(F)(F)F (stereo not drawn) [flecainide]					increased mortality due to arrhythmias
